These results are taken from paper PMC8536830 (Current Biology, 2021).

As usually defined, the EC50 is the concentration giving half of the maximal effect.

Assay [1] addresses T1, LGC-50 S335A, T348A, S353A (Caenorhabditis elegans, UniProt P41849, S335A/S353A/T348A).
T1 construct: Plasmid: KSM: lgc-50 (cDNA, S335A, T348A, S353A); expressed in transfected cells; host or cells: Xenopus laevis oocytes injected with cRNA (plasmid pIH128)
Description: Two-electrode voltage clamp, 5-HT evoked dose response, LGC-50 phospho-dead mutant. Type of assay: cell-based, C. elegans. From the text:
In addition to this region, we also investigated three upstream predicted phosphorylation sites. Phosphorylation of the M3/4 loop has previously been implicated in the trafficking and cell surface recycling of GABAA receptors.[23]^,[24] The first site in the M3/4 loop of LGC-50, S335, is predicted to be a cdc2 site, and T348 and S353 are predicted protein kinase C (PKC) or PKA sites (Table S2).[25]^,[26] We introduced both phosphorylation-dead alanine mutations and phosphomimic aspartate mutations into these sites to assess their effect on receptor trafficking. […]
(§1) Two-electrode voltage clamp recordings were carried out using the Robocyte2 recording system or a manual TEVC set up, using an OC-725D amplifier (Multi Channel Systems, Reutlingen, Germany) and paired with a custom-made recording chamber and agar bridges from reference and bath electrodes. […] Data was recorded using WinWCP or RoboCyte2 control software, manual data was filtered at 10 Hz.
Dose response curves were calculated from the peak current during a 10 s agonist stimulation in ND96 solution, with a 60 s ND96 wash in between doses. […] Normalized dose response data was fitted to a nonlinear curve using a four parameters variable slope and the EC50 and Hill slope was calculated. […] Kinetic measurements were calculated from a 60 s agonist perfusion. […]
On the technique in general: Two-electrode voltage clamp holds a large cell at a set potential and records current.

The next assay concerns the target T2, LGC-50 (Caenorhabditis elegans, UniProt P41849).
T2 construct: lgc-50 ORF F […]; expressed in transfected cells; host or cells: Xenopus laevis oocytes injected with cRNA (plasmid pJML002, KSM: lgc-50 cDNA)
T2 sequence (P41849 20-491): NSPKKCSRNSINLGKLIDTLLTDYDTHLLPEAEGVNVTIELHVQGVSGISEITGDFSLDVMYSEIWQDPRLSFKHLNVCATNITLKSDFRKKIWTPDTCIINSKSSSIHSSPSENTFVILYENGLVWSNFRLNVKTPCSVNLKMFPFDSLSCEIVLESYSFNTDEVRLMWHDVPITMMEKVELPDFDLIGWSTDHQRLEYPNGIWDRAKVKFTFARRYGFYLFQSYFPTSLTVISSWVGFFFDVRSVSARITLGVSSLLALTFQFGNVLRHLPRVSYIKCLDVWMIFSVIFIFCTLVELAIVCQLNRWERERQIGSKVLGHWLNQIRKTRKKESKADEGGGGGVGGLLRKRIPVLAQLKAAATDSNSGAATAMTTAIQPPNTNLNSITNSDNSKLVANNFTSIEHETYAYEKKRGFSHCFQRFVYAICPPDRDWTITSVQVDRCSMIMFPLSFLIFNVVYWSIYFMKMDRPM
Briefly: Two-electrode voltage clamp, agonist-evoked currents in Xenopus oocytes expressing LGC-50. The class given is cell-based, C. elegans.
Source text: We aimed to deorphanize C. elegans LGICs without known ligands, focusing on 5 genes in the putative monoamine-gated group: lgc-50; lgc-51; lgc-52; lgc-54; and lgc-56 (previously named ggr-3). Using heterologous overexpression in Xenopus oocytes and two-electrode voltage clamp recordings, we measured channel activity evoked by application of 11 monoamines and other neurotransmitters.
Defolliculated Xenopus laevis oocytes were obtained from EcoCyte Bioscience (Dortmund, Germany) and maintained in ND96 (in mM: 96 NaCl, 1 MgCl2, 5 HEPES, 1.8 CaCl2, 2 KCl) solution at 16°C for 3-5 days.
5'-capped cRNA was synthesized in vitro using the T3 mMessage mMachine transcription kit according to manufacturer’s protocol (Thermo Fischer Scientific, CA, USA). RNA was then purified using the GeneJET RNA purification kit (Thermo Fischer Scientific, CA, USA) prior to cRNA injection. […]
as §1
Dose response curves were calculated from the peak current during a 10 s agonist stimulation in ND96 solution, with a 60 s ND96 wash in between doses. […] Normalized dose response data was fitted to a nonlinear curve using a four parameters variable slope and the EC50 and Hill slope was calculated. […] Ion selectivity was determined using a voltage ramp protocol of 20mV/s ranging from −80mV to +60mV in the presence or absence of the primary agonist in three different solutions: ND96, NMDG (Na^+ free) and Na Gluconate (low Cl^-) solutions. […] Antagonist dose response curves were calculated from the peak current during a 10 s agonist + antagonist stimulation in ND96 solution, with the agonist concentration remaining constant. […] Kinetic measurements were calculated from a 60 s agonist perfusion. […]

T1 sequence (P41849 20-491 S335A/T348A/S353A): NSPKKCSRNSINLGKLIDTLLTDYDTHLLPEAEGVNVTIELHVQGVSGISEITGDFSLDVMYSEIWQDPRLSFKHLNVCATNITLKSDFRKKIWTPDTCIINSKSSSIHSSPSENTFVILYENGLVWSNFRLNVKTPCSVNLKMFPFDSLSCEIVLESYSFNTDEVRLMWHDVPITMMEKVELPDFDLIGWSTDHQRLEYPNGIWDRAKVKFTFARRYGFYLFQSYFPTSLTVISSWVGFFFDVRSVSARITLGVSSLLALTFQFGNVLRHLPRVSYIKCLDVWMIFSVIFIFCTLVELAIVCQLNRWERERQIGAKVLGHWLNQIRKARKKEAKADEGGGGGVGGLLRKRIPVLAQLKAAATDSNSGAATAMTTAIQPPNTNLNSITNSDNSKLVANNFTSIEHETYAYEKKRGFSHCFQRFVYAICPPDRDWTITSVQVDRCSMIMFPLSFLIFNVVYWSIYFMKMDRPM

On to `NCCc1c[nH]c2ccc(O)cc12` [5-HT, serotonin], for which the EC50 in assay [1] amounted to 0.57 µM; at LGC-50 (Xenopus oocytes, TEVC, current normalized to Imax, Hill equation with variable slope, read-out: EC50, agonist-evoked dose response, LGC-50) it was 0.94 µM. Also, the “Channel gating in ligand screen, LGC-50” value at LGC-50 (ligands screened at 100 μM, oocytes clamped at −60 mV) is given as “gated”.
